Data on 19 compounds can be found in US7524964B2, “Tetrahydrothiopyrano pyrazole cannabinoid modulators” (Janssen Pharmaceutica NV, priority 2005, dated 2009).

In one test the target is T1, human CB-2 receptor (Homo sapiens, UniProt P34972).
T1 construct: expressed in transfected cells; host or cells: SK-N-MC cells, pcDNA3 CB-2 (human), semi-purified membranes
Kind of test: Binding assay, cannabinoid CB2 receptor ([3H]-CP-55,940 displacement). Conditions: read-out: CB2 binding percent inhibition; for inhibition at 1 µM: test concentration 1 μM (superscript b). Here is the method: (§1) Binding Assay for CB1 or CB2 Agonists or Inverse Agonists
(§2) The human CB-1 and CB-2 receptors were stably expressed in SK-N-MC cells transfected with pcDNA3 CB-1 (human) or pcDNA3 CB-2 (human). The cells were grown in T-180 cell culture flasks under standard cell culture conditions at 37° C. in a 5% CO2 atmosphere. The cells were harvested by trypsinization and homogenized in a homogenization buffer (10 mM Tris, 0.2 mM MgCl2, 5 mM KCl, with protease inhibitors aprotinin, leupeptin, pepstatin A and bacitracin) and centrifuged (2000 g). The supernatant was then centrifuged in 2M sucrose (31,300 g) to produce a semi-purified membrane pellet. The pellet was resuspended in homogenization and store at −80° C.
(§3) On the day of the assay, the pellet was thawed on ice and diluted in assay buffer (50 mM Tris-HCl, 5 mM MgCl2, 2.5 mM EDTA, 0.5 mg/mL fatty acid free bovine serum albumin, pH 7.5). The diluted membrane was added with buffer, test compound or standard and the radioligand [H]^3+-CP-55,940_(0.2 nM) to the wells of a 96-well polypropylene plate. Non-specific binding was measured in wells containing 10 uM WIN 55,212. The plate was covered and incubated for 90 minutes at 30° C. The contents were then aspirated onto a Packard Unifilter G/C filter bottom plate prewet with 0.5% polyethyleneimine. The wells of the polypropylene plate were rinsed and aspirated seven times with a 0.9% saline-0.5% Tween 20 solution. The Unifilter plate was dried, a scintillation cocktail was added to each well and the counts representing binding were quantitated in a TopCount scintillation counter.
(§4) The IC50 binding values for compounds tested were calculated by linear regression and were obtained from studies in which varying compound concentrations were used. Where an IC50 was not obtained, test results are provided as percent inhibition at a test concentration of ^a0.2 μM, ^b1 μM or ^c10 μM.

Another test addresses human CB1 receptor (Homo sapiens, UniProt P21554). Kind of test: Binding assay, cannabinoid CB1 receptor ([3H]-CP-55,940 displacement). Also noted: expressed in transfected cells; host or cells: SK-N-MC cells, pcDNA3 CB-1 (human), semi-purified membranes. The settings on record: for inhibition at 0.2 µM: test concentration 0.2 μM (superscript a); for inhibition at 1 µM: test concentration 1 μM (superscript b). Here is the method: as §1, §2, §3, §4

[1] abbreviates: test concentration 0.2 μM (superscript a).
The mark [2] stands for this setting: read-out: CB1 binding percent inhibition.

pIC50: −log10 of the molar value. Read-outs that look alike come from different tables or passages of the source.

Sequence of human CB1 receptor (P21554 whole entry): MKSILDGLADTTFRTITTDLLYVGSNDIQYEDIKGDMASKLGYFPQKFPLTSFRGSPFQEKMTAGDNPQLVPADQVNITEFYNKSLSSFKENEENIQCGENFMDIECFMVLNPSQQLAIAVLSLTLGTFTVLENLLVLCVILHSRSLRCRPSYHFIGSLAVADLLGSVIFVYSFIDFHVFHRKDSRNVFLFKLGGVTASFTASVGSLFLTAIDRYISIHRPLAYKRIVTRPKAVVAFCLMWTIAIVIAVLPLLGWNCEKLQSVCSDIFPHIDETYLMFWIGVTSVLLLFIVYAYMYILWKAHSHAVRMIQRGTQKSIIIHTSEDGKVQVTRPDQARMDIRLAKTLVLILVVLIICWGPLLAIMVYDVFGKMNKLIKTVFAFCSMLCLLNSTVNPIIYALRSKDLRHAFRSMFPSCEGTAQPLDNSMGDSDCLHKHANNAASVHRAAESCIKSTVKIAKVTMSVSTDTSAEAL
T1 sequence (P34972 whole entry): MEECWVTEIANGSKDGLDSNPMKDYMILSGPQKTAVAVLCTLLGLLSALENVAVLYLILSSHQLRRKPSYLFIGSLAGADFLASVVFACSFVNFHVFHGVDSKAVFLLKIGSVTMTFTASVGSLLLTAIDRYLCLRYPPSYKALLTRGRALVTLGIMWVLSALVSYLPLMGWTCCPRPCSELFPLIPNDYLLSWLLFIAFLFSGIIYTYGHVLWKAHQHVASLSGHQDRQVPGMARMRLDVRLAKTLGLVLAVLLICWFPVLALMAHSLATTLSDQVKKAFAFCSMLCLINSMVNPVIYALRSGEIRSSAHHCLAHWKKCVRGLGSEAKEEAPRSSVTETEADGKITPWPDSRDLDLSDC

For orientation: inhibition means the change of the read-out against control, counted positive when it falls. As to `O=C(NN1CCCCCC1)c1nn(-c2ccc(Cl)cc2Cl)c2c1CS(=O)(=O)C/C2=C\c1ccc(F)cc1` [Cpd 107, (7Z)-1-(2,4-dichloro-phenyl)-7-(4-fluoro-benzylidene)-5,5-dioxo-4,5,6,7-tetrahydro-1H-5λ^6-thiopyrano[4,3-c]pyrazole-3-carboxylic acid azepan-1-ylamide], the values for the inhibition at 0.2 µM on human CB-2 receptor (setting [1]) and at human CB1 receptor (setting [2]) were 23% and 92%, respectively.

A word on the pIC50: it is the IC50 on a negative log10 scale, so that one unit is a factor of ten. A high value points to a small IC50. For the compound `O=C(NN1CCCCC1)c1nn(-c2ccc(Cl)cc2)c2c1CSC/C2=C\c1ccc(F)cc1` [Cpd 93, (7Z)-1-(4-chloro-phenyl)-7-(4-fluoro-benzylidene)-1,4,6,7-tetrahydro-thiopyrano[4,3-c]pyrazole-3-carboxylic acid piperidin-1-ylamide], the inhibition at 0.2 µM on human CB-2 receptor (setting [1]) is 26%. The compound also showed a pIC50 at human CB1 receptor of 7.44.

As for `C[C@@H](NC(=O)c1nn(-c2ccc(Cl)cc2Cl)c2c1CSC/C2=C\c1ccc(F)cc1)c1ccccc1` [Cpd 63, (7Z)-1-(2,4-dichloro-phenyl)-7-(4-fluoro-benzylidene)-1,4,6,7-tetrahydro-thiopyrano[4,3-c]pyrazole-3-carboxylic acid [(1R)-1-phenyl-ethyl]-amide], the inhibition at 0.2 µM on human CB-2 receptor (setting [1]) was found to be 6%. This compound also had a pIC50 on human CB1 receptor of 8.05.

Turning to `C[C@@H](NS(=O)(=O)/C=C/c1nn(-c2ccc(F)cc2F)c2c1CS(=O)(=O)CC2Cc1cccc(F)c1)C1CCCCC1` (stereo partly drawn) [Cpd 43, (E)-2-[1-(2,4-difluoro-phenyl)-7-(3-fluoro-benzyl)-5,5-dioxo-4,5,6,7-tetrahydro-1H-5λ^6-thiopyrano[4,3-c]pyrazol-3-yl]-ethenesulfonic acid [(1R)-1-cyclohexyl-ethyl]-amide], the values for the inhibition at 0.2 µM at human CB-2 receptor (setting [1]) and on human CB1 receptor (setting [2]) were 11% and 41%, respectively.

For `O=C(c1nn(-c2ccc(Cl)cc2Cl)c2c1CSC/C2=C\c1ccc(F)cc1)N1CCCC1` [Cpd 57, (7Z)-[1-(2,4-dichloro-phenyl)-7-(4-fluoro-benzylidene)-1,4,6,7-tetrahydro-thiopyrano[4,3-c]pyrazol-3-yl]-pyrrolidin-1-yl-methanone], the inhibition at 0.2 µM on human CB-2 receptor (setting [1]) stood at 21%; at human CB1 receptor (setting [2]), 56%.

With `C[C@@H](NC(=O)c1nn(-c2ccc(Cl)cc2)c2c1CS(=O)(=O)C/C2=C\c1ccc(F)cc1)c1ccccc1` [Cpd 95, (7Z)-1-(4-chloro-phenyl)-7-(4-fluoro-benzylidene)-5,5-dioxo-4,5,6,7-tetrahydro-1H-5λ^6-thiopyrano[4,3-c]pyrazole-3-carboxylic acid [(1R)-1-phenyl-ethyl]-amide], the inhibition at 0.2 µM on human CB-2 receptor was 15%. Also, the pIC50 at human CB1 receptor is 8.05.

As to `C[C@H](NS(=O)(=O)/C=C/c1c2c(nn1Cc1ccccc1)CCSC2)C1CCCCC1` [Cpd 8], the inhibition at 1 µM on human CB-2 receptor was 5%; at human CB1 receptor (setting [2]), 8%.

As for `O=C(c1nn(-c2ccc(Cl)cc2Cl)c2c1CS(=O)(=O)C/C2=C\c1ccc(F)cc1)N1CCCCC1` [Cpd 101, (7Z)-[1-(2,4-dichloro-phenyl)-7-(4-fluoro-benzylidene)-5,5-dioxo-4,5,6,7-tetrahydro-1H-5λ^6-thiopyrano[4,3-c]pyrazol-3-yl]-piperidin-1-yl-methanone], the inhibition at 0.2 µM came to 24% at human CB-2 receptor (setting [1]) and 61% at human CB1 receptor (setting [2]).

Regarding `CC(NS(=O)(=O)/C=C/c1c2c(nn1Cc1ccccc1)CC[S+]([O-])C2)c1ccccc1` (stereo not shown) [Cpd 22, (E)-2-(2-benzyl-5-oxo-4,5,6,7-tetrahydro-2H-5λ^4-thiopyrano[4,3-c]pyrazol-3-yl)-ethenesulfonic acid (1-phenyl-ethyl)-amide], the inhibition at 1 µM was 0% on human CB-2 receptor and 11% on human CB1 receptor (setting [2]). For the same compound, the inhibition at 10 µM was found to be 2% on human CB-2 receptor (test concentration 10 μM (superscript c)) and 0% at human CB1 receptor (test concentration 10 μM (superscript c), read-out: CB1 binding percent inhibition).

With `O=C(NN1CCCCC1)c1nn(-c2ccc(Cl)cc2Cl)c2c1CS(=O)(=O)C/C2=C\c1ccc(Cl)o1` [Cpd 119, (7Z)-7-(5-chloro-furan-2-ylmethylene)-1-(2,4-dichloro-phenyl)-5,5-dioxo-4,5,6,7-tetrahydro-1H-5λ^6-thiopyrano[4,3-c]pyrazole-3-carboxylic acid piperidin-1-ylamide], at human CB-2 receptor (setting [1]), the inhibition at 0.2 µM came out at 17%. This compound had a negative-log IC50 (pIC50) at human CB1 receptor of 7.09.

With `O=C(NN1CC2CCCC2C1)c1c2c(nn1-c1ccc(Cl)cc1Cl)/C(=C/c1ccc(F)cc1)CS(=O)(=O)C2` (stereo not shown) [Cpd 87, (7Z)-2-(2,4-dichloro-phenyl)-7-(4-fluoro-benzylidene)-5,5-dioxo-4,5,6,7-tetrahydro-2H-5λ^6-thiopyrano[4,3-c]pyrazole-3-carboxylic acid (hexahydro-cyclopenta[c]pyrrol-2-yl)-amide], the inhibition at 0.2 µM at human CB-2 receptor (setting [1]) was determined as 4%. Also, at human CB1 receptor, the pIC50 is 7.74.

As to `C[C@@H](NC(=O)c1c2c(nn1-c1ccc(Cl)cc1Cl)/C(=C/c1ccc(F)cc1)CS(=O)(=O)C2)c1ccccc1` [Cpd 82, (7Z)-2-(2,4-dichloro-phenyl)-7-(4-fluoro-benzylidene)-5,5-dioxo-4,5,6,7-tetrahydro-2H-5λ^6-thiopyrano[4,3-c]pyrazole-3-carboxylic acid [(1R)-1-phenyl-ethyl]-amide], the inhibition at 0.2 µM on human CB-2 receptor (setting [1]) is 19%. Besides, the negative-log IC50 (pIC50) on human CB1 receptor is 7.32.

For the compound `C[C@@H](NS(=O)(=O)/C=C/c1c2c(nn1Cc1ccccc1)CCSC2)C1CCCCC1` [Cpd 6, (E)-2-(2-benzyl-2,4,6,7-tetrahydro-thiopyrano[4,3-c]pyrazol-3-yl)-ethenesulfonic acid [(1R)-1-cyclohexyl-ethyl]-amide], the inhibition at 1 µM at human CB-2 receptor was 0%; at human CB1 receptor (setting [2]) it was 16%.

`C[C@H](NC(=O)c1nn(-c2ccc(Cl)cc2Cl)c2c1C[S+]([O-])C/C2=C\c1ccc(F)cc1)c1ccccc1` (stereo partly drawn) [Cpd 74, (7Z)-1-(2,4-dichloro-phenyl)-7-(4-fluoro-benzylidene)-5-oxo-4,5,6,7-tetrahydro-1H-5λ^4-thiopyrano[4,3-c]pyrazole-3-carboxylic acid [(1S)-1-phenyl-ethyl]-amide]: the figures for the inhibition at 0.2 µM at human CB-2 receptor (setting [1]) and on human CB1 receptor (setting [2]) were 8% and 45%, respectively.

As to `NC(=O)c1nn(-c2ccc(Cl)cc2Cl)c2c1CS(=O)(=O)C/C2=C\c1ccc(F)cc1` [Cpd 71, (7Z)-1-(2,4-dichloro-phenyl)-7-(4-fluoro-benzylidene)-5,5-dioxo-4,5,6,7-tetrahydro-1H-5λ^6-thiopyrano[4,3-c]pyrazole-3-carboxylic acid amide], the figures for the inhibition at 0.2 µM at human CB-2 receptor (setting [1]) and on human CB1 receptor (setting [2]) were 13% and 18%, respectively.

`C[C@H](NC(=O)c1c2c(nn1-c1ccc(Cl)cc1Cl)/C(=C/c1ccc(F)cc1)CS(=O)(=O)C2)c1ccccc1` [Cpd 86, (7Z)-2-(2,4-dichloro-phenyl)-7-(4-fluoro-benzylidene)-5,5-dioxo-4,5,6,7-tetrahydro-2H-5λ^6-thiopyrano[4,3-c]pyrazole-3-carboxylic acid [(1S)-1-phenyl-ethyl]-amide]: the inhibition at 0.2 µM on human CB-2 receptor (setting [1]) was found to be 14%. On human CB1 receptor, the negative-log IC50 (pIC50) is 7.68.

Take `O=C(NCc1ccccn1)c1nn(-c2ccc(Cl)cc2Cl)c2c1CSC/C2=C\c1ccc(F)cc1` [Cpd 72, (7Z)-1-(2,4-dichloro-phenyl)-7-(4-fluoro-benzylidene)-1,4,6,7-tetrahydro-thiopyrano[4,3-c]pyrazole-3-carboxylic acid (pyridin-2-ylmethyl)-amide]: the inhibition at 0.2 µM on human CB-2 receptor (setting [1]) came out at 10%; at human CB1 receptor (setting [2]) it was 48%.

Regarding `C[C@H](NS(=O)(=O)/C=C/c1nn(-c2ccc(F)cc2F)c2c1CS(=O)(=O)CC2Cc1cccc(F)c1)c1ccccc1` (stereo partly drawn) [Cpd 42, (E)-2-[1-(2,4-difluoro-phenyl)-7-(3-fluoro-benzyl)-5,5-dioxo-4,5,6,7-tetrahydro-1H-5λ^6-thiopyrano[4,3-c]pyrazol-3-yl]-ethenesulfonic acid [(1S)-1-phenyl-ethyl]-amide], the inhibition at 0.2 µM stood at 20% on human CB-2 receptor (setting [1]) and 31% at human CB1 receptor (setting [2]).

Take `O=C(N[C@@H]1CCC[C@H]1O)c1nn(-c2ccc(Cl)cc2Cl)c2c1CS(=O)(=O)C/C2=C\c1ccc(F)cc1` [Cpd 67, (7Z)-1-(2,4-dichloro-phenyl)-7-(4-fluoro-benzylidene)-5,5-dioxo-4,5,6,7-tetrahydro-1H-5λ^6-thiopyrano[4,3-c]pyrazole-3-carboxylic acid [(1R,2R)-2-hydroxy-cyclopentyl]-amide]: the figures for the inhibition at 0.2 µM on human CB-2 receptor (setting [1]) and at human CB1 receptor (setting [2]) were 15% and 46%, respectively.
